Results reported in patent US8143068B2, “Oxidation resistant indicator molecules” (Sensors for Medicine and Science, Inc., priority 2006, dated 2012).
Where two headings read alike, the source gives them in different places.

Experiments:
[1] = Stability of indicator gels towards oxidant: 1 mM hydrogen peroxide in PBS at 37° C.; format: physicochemical; conditions: indicator gel
Protocol: Several compounds of the present invention were each copolymerized with hydroxyethyl methacrylate (HEMA), acrylic acid and ethylene glycol dimethacrylate (EGDMA) to form water insoluble polymer gels, as in Example 3. Their stability towards oxidant was assessed by subjecting the gels to 1 mM hydrogen peroxide in PBS at 37° C. […] In a further experiment, the fluorescent change (% modulation) from 0 to 20 mM glucose of various indicator gels was measured and the results are shown in FIG. 8.

[2] = aqueous association with glucose; cited from earlier work
[3] = Modulation of fluorescence by varying concentrations of glucose (Example 1, FIG. 1)
Protocol: The modulation of the fluorescence of various molecules (depicted in FIG. 5) by varying concentrations of glucose was determined. […] In a further experiment, the unsubstituted control and two compounds of the present invention (4-trifluoromethyl and 3,4-difluoro) were subjected to oxidation treatment with 1 mM hydrogen peroxide, and the loss of fluorescence intensity was measured.

[4] = Fluorescence and glucose response of indicator gels (Table 1); format: binding; conditions: indicator gel; for Kd: 37° C.
[5] = Stability of indicator gels in 1 mM hydrogen peroxide in the presence of 4 mM glucose in PBS at 37° C.; format: physicochemical; conditions: indicator gel
Protocol: Several compounds of the present invention were each copolymerized with hydroxyethyl methacrylate (HEMA), acrylic acid and ethylene glycol dimethacrylate (EGDMA) to form water insoluble polymer gels, as in Example 3. Their stability towards oxidant was assessed by subjecting the gels to 1 mM hydrogen peroxide in PBS at 37° C. In a further experiment, two of the indicator gels (the 4-trifluoromethyl and 4-trifluoromethylsulfone gels) were subjected to 1 mM hydrogen peroxide in the presence of 4 mM glucose in PBS at 37° C. In a further experiment, the fluorescent change (% modulation) from 0 to 20 mM glucose of various indicator gels was measured and the results are shown in FIG. 8.

[6] = Long term exposure of indicator gels to 10 μM hydrogen peroxide and 4 mM glucose/PBS at 37° C., loss of fluorescence intensity; format: physicochemical; conditions: indicator gel
Protocol: Several gels (produced as in Example 3) containing compounds of the present invention (4-trifluoromethyl, 3,4-difluoro and 4-fluoro) and a control (unsubstituted) were subjected to long term exposure to 10 μM hydrogen peroxide and 4 mM glucose/PBS at 37° C., and the loss of fluorescence intensity was measured.
Two compounds according to the present invention (4-trifluoromethyl and 3,4-difluoro) and the unsubstituted control were each copolymerized with hydroxyethyl methacrylate (HEMA) and acrylic acid, and crosslinked with ethylene glycol dimethacrylate (EGDMA) to form a water insoluble polymer graft, which was then implanted into a rat to be subjected to in vivo oxidation for 22 or 43 days.

t 1/2 [1]	Molecule	further results
22 min	9-[N-[6-(4,4,5,5,-tetramethyl-1,3,2-dioxaborolano)-2,4-(dichloro)benzyl]-N-[3-(methacrylamido)propylamino]methyl]-10-[N-[6-(4,4,5,5,-tetramethyl-1,3,2-dioxaborolano)-2,4-(dichloro)benzyl]-N-[2-(carboxyethyl)amino]-methyl]anthracene sodium salt [3,5-Dichloro]	–
495 min	9-[N-[6-(4,4,5,5,-tetramethyl-1,3,2-dioxaborolano)-2,4-bis(trifluoromethyl)benzyl]-N-[3-(methacrylamido)propylamino]methyl]-10-[N-[6-(4,4,5,5,-tetramethyl-1,3,2-dioxaborolano)-2,4-bis(trifluoromethyl)benzyl]-N-[2-(carboxyethyl)amino]-methyl]anthracene sodium salt [3,5-Bis(trifluoromethyl)]	–
24 min	9-[N-[2-(4,4,5,5,-tetramethyl-1,3,2-dioxaborolano)-4-(trifluoromethyl)benzyl]-N-[3-(methacrylamido)propylamino]methyl]-10-[N-[2-(4,4,5,5-tetra-methyl-1,3,2-dioxaborolano)-4-(trifluoromethyl)benzyl]-N-[2-(carboxyethyl)amino]methyl]-anthracene sodium salt [5-Trifluoromethyl]	–
6 min	C=C(C)C(=O)NCCCN(Cc1ccc(F)cc1B1OC(C)(C)C(C)(C)O1)Cc1c2ccccc2c(CN(CCC(=O)[O-])Cc2ccc(F)cc2B2OC(C)(C)C(C)(C)O2)c2ccccc12.[Na+] [Indicator 5-Fluoro, 9-[N-[2-(4,4,5,5,-tetramethyl-1,3,2-dioxaborolano)-4-fluorobenzyl]-N-[3-(methacrylamido)propylamino]methyl]-10-[N-[2-(4,4,5,5,-tetramethyl-1,3,2-dioxaborolano)-4-fluorobenzyl]-N-[2-(carboxyethyl)amino]methyl]anthracene sodium salt]	–
–	OB(O)c1ccccc1 [phenylboronic acid]	Kd [2]: 9.1 mM
24 min	C=C(C)C(=O)NCCCN(Cc1cc(OC(F)(F)F)ccc1B1OC(C)(C)C(C)(C)O1)Cc1c2ccccc2c(CN(CCC(=O)[O-])Cc2cc(OC(F)(F)F)ccc2B2OC(C)(C)C(C)(C)O2)c2ccccc12.[Na+] [4-Trifluoromethoxy, 9-[N-[6-(4,4,5,5,-tetramethyl-1,3,2-dioxaborolano)-3-(trifluoromethoxy)benzyl]-N-[3-(methacrylamido)propylamino]methyl]-10-[N-[6-(4,4,5,5-tetra-methyl-1,3,2-dioxaborolano)-3-(trifluoromethoxy)benzyl]-N-[2-(carboxyethyl)amino]methyl]-anthracene sodium salt]	–
–	9-[N-[2-(4,4,5,5,-tetramethyl-1,3,2-dioxaborolano)-3-methylbenzyl]-N-[3-(methacrylamido)propylamino]methyl]-10-[N-[2-(4,4,5,5,-tetramethyl-1,3,2-dioxaborolano)-3-methylbenzyl]-N-[2-(carboxyethyl)amino]methyl]anthracene [Indicator 2-Methyl]	modulation of the fluorescence by glucose [3]: did not modulate well
18 min	9-[N-[6-(4,4,5,5,-tetramethyl-1,3,2-dioxaborolano)-3-cyanobenzyl]-N-[3-(methacrylamido)propylamino]methyl]-10-[N-[6-(4,4,5,5,-tetramethyl-1,3,2-dioxaborolano)-3-cyanobenzyl]-N-[2-(carboxyethyl)amino]methyl]anthracene sodium salt [Indicator 4-Cyano]	–
32 min	9-[N-[6-(4,4,5,5,-tetramethyl-1,3,2-dioxaborolano)-2,3-dichlorobenzyl]-N-[3-(methacrylamido)propylamino]methyl]-10-[N-[6-(4,4,5,5,-tetramethyl-1,3,2-dioxaborolano)-2,3-dichlorobenzyl]-N-[2-(carboxyethyl)amino]methyl]anthracene sodium salt [3,4-Dichloro]	–
–	C=C(C)C(=O)NCCCN(Cc1cc([N+](=O)[O-])ccc1B1OC(C)(C)C(C)(C)O1)Cc1c2ccccc2c(CN(CCC(=O)[O-])Cc2cc([N+](=O)[O-])ccc2B2OC(C)(C)C(C)(C)O2)c2ccccc12.[Na+] [Indicator 4-Nitro, 9-[N-[6-(4,4,5,5,-tetramethyl-1,3,2-dioxaborolano)-3-nitrobenzyl]-N-[3-(methacrylamido)propylamino]methyl]-10-[N-[6-(4,4,5,5,-tetramethyl-1,3,2-dioxaborolano)-3-nitrobenzyl]-N-[2-(carboxyethyl)amino]methyl]anthracene sodium salt]	modulation of the fluorescence by glucose [3]: did not modulate well
13 min	9-[N-[6-(4,4,5,5,-tetramethyl-1,3,2-dioxaborolano)-3-fluorobenzyl]-N-[3-(methacrylamido)propylamino]methyl]-10-[N-[6-(4,4,5,5,-tetramethyl-1,3,2-dioxaborolano)-3-fluorobenzyl]-N-[2-(carboxyethyl)amino]methyl]anthracene sodium salt [Indicator 4-Fluoro]	–
17 min	9-[N-[6-(4,4,5,5,-tetramethyl-1,3,2-dioxaborolano)-3-(trifluoromethyl)benzyl]-N-[3-(methacrylamido)propylamino]methyl]-10-[N-[6-(4,4,5,5,-tetramethyl-1,3,2-dioxaborolano)-3-(trifluoromethyl)benzyl]-N-[2-(carboxyethyl)amino]methyl]anthracene sodium salt [4-Trifluoromethyl]	AVERAGE % MODULATION (0 to 20 mM glucose) [4]: 191%; Kd [4]: 12.2 mM; t 1/2 (minutes), in 4 mM Glucose Solution [5]: 30 min; HALF LIFE (days) at 37° C. in 4 mM glucose and 10 μM H2O2 [6]: 26 days
13 min	9-[N-[6-(4,4,5,5,-tetramethyl-1,3,2-dioxaborolano)-2,3-difluorobenzyl]-N-[3-(methacrylamido)propylamino]methyl]-10-[N-[6-(4,4,5,5,-tetramethyl-1,3,2-dioxaborolano)-2,3-difluorobenzyl]-N-[2-(carboxyethyl)amino]methyl]anthracene sodium salt [3,4-Difluoro]	AVERAGE % MODULATION (0 to 20 mM glucose) [4]: 137%; Kd [4]: 30.9 mM; HALF LIFE (days) at 37° C. in 4 mM glucose and 10 μM H2O2 [6]: 33 days
